These results are taken from patent publication US10961234B2, “Oxazole derivatives for use in the treatment of cancer” (LIFEARC, priority 2016, dated 2021).

One assay deals with T1, WT full length PAICS (Homo sapiens, UniProt P22234).
T1 construct: 5 μl WT full length PAICS (final assay concentration, fac, 2.5 nM) in basic buffer
T1 sequence (P22234 1-425): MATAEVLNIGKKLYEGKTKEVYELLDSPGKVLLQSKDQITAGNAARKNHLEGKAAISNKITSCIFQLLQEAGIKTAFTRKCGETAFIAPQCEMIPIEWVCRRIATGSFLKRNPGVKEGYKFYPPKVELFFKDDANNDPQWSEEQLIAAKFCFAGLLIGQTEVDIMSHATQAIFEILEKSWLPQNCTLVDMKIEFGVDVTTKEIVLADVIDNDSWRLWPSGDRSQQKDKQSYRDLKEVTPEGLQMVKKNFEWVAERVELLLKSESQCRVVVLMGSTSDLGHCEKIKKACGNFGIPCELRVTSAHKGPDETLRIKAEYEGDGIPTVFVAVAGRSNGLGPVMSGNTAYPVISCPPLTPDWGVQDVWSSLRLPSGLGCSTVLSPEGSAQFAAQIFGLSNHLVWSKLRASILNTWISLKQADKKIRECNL
The assay is described as follows: Biochemical assay to measure PAICS activity (Transcreener ADP2 FI, SAICAR synthetase reaction). The conditions noted are these: PAICS 2.5 nM, 30 mins pre-incubation, ADP detection by fluorescence intensity. From the text:
The biochemical assay was used to measure PAICS SAICAR synthetase-mediated conversion of CAIR, aspartic acid and ATP to SAICAR, ADP and inorganic phosphate (PI), post-AIR/CAIR equilibration (see FIG. 3). This was achieved by detecting the ADP generated during the reaction, using Bellbrook Lab's Transcreener ADP^2 FI assay. An increase in the fluorescence intensity is directly proportional to the amount of PAICS activity.
The Transcreener ADP^2 FI assay is a homogeneous competitive displacement fluorescence intensity assay which uses direct immunodetection of ADP. Displacement of the tracer by ADP causes an increase in the fluorescence at excitation 590 nm and emission 617 nm (FIG. 3).
5 μl WT full length PAICS (final assay concentration, fac, 2.5 nM) in basic buffer, added to black, non-binding, 384-well plates (Corning #3575), columns 1 to 22.5 μl basic buffer was added to columns 23+24 (negative control). PAICS stock at 31.9 μM from the PI's lab (Steve Firestine). Basic buffer contained 50 mM Tris-HCl pH8 and 0.5 mM EDTA, fac.
1 μl compound in 100% DMSO added per well, or 1 μl 100% DMSO to positive controls (columns 1+2) and negative controls (columns 23+24). Final assay top concentration of compound either 1 mM or 30 μM, serially diluted with half-log dilutions across the plate in duplicate (one 10-point concentration response curve across wells 3 to 12, another across 13 to 22). Compounds pre-incubated with PAICS enzyme for 30 mins at RT.
2 μl CAIR added (fac 10 μM) in basic buffer plus 25 mM MgCl2 and 50 mM KHCO3 fac to all wells. CAIR stock 50 mM from Steve Firestine's lab. 1 hr RT incubation for AIR-CAIR equilibration. NB: ˜50% CAIR is decarboxylated during equilibration therefore 5 μM remains for the synthetase reaction.
2 μl ATP/aspartic acid added (fac 30 μM/180 μM) in reaction buffer to all wells. 30 mins RT incubation for appropriate level of ATP turnover. Reaction buffer contained basic buffer plus 10 mM DTT, 0.01% BSA and 0.01% Brij 35, fac.
10 μl ADP detection reagent added to all wells (as per instructions, Transcreener ADP^2 FI kit, BellBrook Labs #3013-10K). Incubation for 1 h at RT to allow antibody equilibration. Fluorescence intensity determined using a Tecan Safire2 (excitation at 590 nm, emission at 617 nm).

The subject of assay [1] is LM2 and MDA-MB-231 breast cancer cell lines. The assay can be described thus: PAICS 2D cell proliferation assay. The settings on record: Homo sapiens; 72 hours incubation; cell line (LM2 or MDA-MB-231) not given. The class given is cell-based. The procedure: Frozen cryovial stocks of LM2 and MDA-MB-231 breast cancer cell lines were thawed and cultured in 4.5 g/L glucose DMEM (31966-047, Invitrogen) supplemented with 10% Fetal Bovine Serum (10500-064, Invitrogen) until confluent in a T175 flask. Cells were incubated at 37° C. with 5% CO2 in a humidified incubator.
Cells were collected from T175 flasks by washing with PBS (10010-056, Invitrogen) and dissociated using Accutase (A6964, Sigma Aldrich). This was followed by centrifuging (1200 rpm, 5 min) and resuspending the cells in 10 ml of media containing 1% penicillin/streptomycin (15140-122, Invitrogen). Cells were counted by trypan blue exclusion method using an automated cell counter (Cellometer) and diluted to a concentration of 40,000/ml. 1000 cells were then seeded into 384-well white-walled plates (Corning, 3707) in a volume of 25 μl. Plates were incubated overnight at 37° C. with 5% CO2.
After 24 hours, PAICS compounds were added onto the assay plates using an HP D300 Digital Dispenser (Hewlett Packard). 10 mM stocks were used and dispensed as a 10 point concentration response curve (CRC) ½ log dilution series with a final top concentration of 100 μM. Controls were added onto each plate: positive controls included Staurosporine CRC (100 μM stock dispensed as a 10 point CRC ½ log dilution series with a final top concentration of 1 μM) and PAICS compound MRT00211919 (10 mM stock dispensed as a 10 point CRC ½ log dilution series with a final top concentration of 100 μM); a high control of Staurosporine (0.1 μM (LM2), 0.316 μM (MDA-MB-231) FAC) and a low control of media containing 1% DMSO. A final concentration of 1% DMSO was then added across the plates for normalisation. Following compound addition, assay plates were incubated for 72 hours at 37° C. with 5% CO2.
After 72 h incubation, dead and viable cells were measured in each assay plate. Cytotoxicity was assessed through fluorescent DNA staining using the CellTox™ Green Cytotoxicity Assay kit (G8743, Promega) following the manufacturer's multiplexing protocol. Impaired cell membrane integrity results in the access of dye to stain DNA allowing quantification of dead cells. Cell viability was determined following ATP quantification using the CellTiter-Glo® Luminescent Cell Viability Assay kit (G7572, Promega) following the manufacturer's protocol. ATP released from lysed cells allowed for the generation of a signal proportional to the number of cells present in the well. All endpoint reads were performed using the PheraSTAR Plus (BMG Labtech). Data is expressed as % viable cells and % dead cells against controls (mean±SEM of duplicate curves).

On to `Nc1nc(C(=O)Nc2cc(-c3ccc(OCC4CCCNC4)nc3)ccc2Cl)co1` (stereo not drawn) [Example 69, 2-Amino-N-(2-chloro-5-(6-(piperidin-3-ylmethoxy)pyridin-3-yl)phenyl)oxazole-4-carboxamide], for which the IC50 against WT full length PAICS was in the range of 10 to 25 nM. In assay [1], the EC50 fell in the range of 250 to 500 nM.

On to `CNCCCOc1ccc(-c2ccc(Cl)c(NC(=O)c3coc(N)n3)c2)cn1` [Example 70, 2-Amino-N-(2-chloro-5-(6-(3-(methylamino)propoxy)pyridin-3-yl)phenyl)oxazole-4-carboxamide], for which, on WT full length PAICS, the IC50 fell in the range of 10 to 25 nM. This molecule also returned an EC50 in assay [1] of 100 to 250 nM.

On to `CC(C)NCCCOc1ccc(-c2ccc(Cl)c(NC(=O)c3coc(N)n3)c2)cn1` [Example 71, 2-Amino-N-(2-chloro-5-(6-(3-(isopropylamino)propoxy)pyridin-3-yl)phenyl)oxazole-4-carboxamide], for which the IC50 at WT full length PAICS was 10 to 25 nM. Besides, in assay [1], the EC50 was 100 to 250 nM.

`CN(C)CCCOc1ccc(-c2ccc(Cl)c(NC(=O)c3coc(N)n3)c2)cn1` [Example 72, 2-Amino-N-(2-chloro-5-{6-[3-(dimethylamino)propoxy]pyridin-3-yl}phenyl)-1,3-oxazole-4-carboxamide]: on WT full length PAICS, the IC50 was in the range of 10 to 25 nM. Also, the EC50 in assay [1] fell in the range of 100 to 250 nM.

For the molecule `CN(C)CCOc1ccc(-c2ccc(Cl)c(NC(=O)c3coc(N)n3)c2)cn1` [Example 73, 2-Amino-N-(2-chloro-5-(6-(2-(dimethylamino)ethoxy)pyridin-3-yl)phenyl)oxazole-4-carboxamide], on WT full length PAICS, the IC50 lay in the range of 25 to 100 nM. Further, the EC50 in assay [1] lay in the range of 250 to 500 nM.

`CN(C)CCOc1ncc(-c2ccc(Cl)c(NC(=O)c3coc(N)n3)c2)cn1` [Example 74, 2-Amino-N-(2-chloro-5-(2-(2-(dimethylamino)ethoxy)pyrimidin-5-yl)phenyl)oxazole-4-carboxamide] returned an IC50 on WT full length PAICS of 25 to 100 nM. In assay [1], the EC50 is 250 to 500 nM.

The molecule `CN(C)CCOc1ccc(-c2ccc(Cl)c(NC(=O)c3coc(N)n3)c2)cc1` [Example 75, 2-Amino-N-{4-chloro-4′-[2-(dimethylamino)ethoxy]biphenyl-3-yl}-1,3-oxazole-4-carboxamide] gave an IC50 on WT full length PAICS of 25 to 100 nM. Also, the EC50 in assay [1] is 100 to 250 nM.

The molecule `Nc1nc(C(=O)Nc2cc(-c3ccc(CN4CCNCC4)nc3)ccc2Cl)co1` [Example 76, 2-Amino-N-{2-chloro-5-[6-(piperazin-1-ylmethyl)pyridin-3-yl]phenyl}-1,3-oxazole-4-carboxamide] gave an IC50 against WT full length PAICS of 25 to 100 nM. The molecule further returned an EC50 in assay [1] of 250 to 500 nM.

Regarding `Nc1nc(C(=O)Nc2cc(-c3ccc(CN[C@H]4CC[C@H](N)CC4)nc3)ccc2Cl)co1` [Example 77, 2-Amino-N-[5-(6-{[(trans-4-aminocyclohexyl)amino]methyl}pyridin-3-yl)-2-chlorophenyl]-1,3-oxazole-4-carboxamide], the IC50 at WT full length PAICS was in the range of 10 to 25 nM. This molecule also had an EC50 in assay [1] of 250 to 500 nM.

Regarding `CN1CCC(NCc2ccc(-c3ccc(Cl)c(NC(=O)c4coc(N)n4)c3)cn2)CC1` [Example 78, 2-Amino-N-[2-chloro-5-(6-{[(1-methylpiperidin-4-yl)amino]methyl}pyridin-3-yl)phenyl]-1,3-oxazole-4-carboxamide], the IC50 against WT full length PAICS lay within 10 to 25 nM. In assay [1], the EC50 was 100 to 250 nM.

For the molecule `Nc1nc(C(=O)Nc2cc(-c3ccc(CN4CC5CNCC5C4)nc3)ccc2Cl)co1` (stereo not drawn) [Example 79, 2-Amino-N-{2-chloro-5-[6-(hexahydropyrrolo[3,4-c]pyrrol-2(1H)-ylmethyl)pyridin-3-yl]phenyl}-1,3-oxazole-4-carboxamide], the IC50 against WT full length PAICS was in the range of 10 to 25 nM. The molecule further yielded an EC50 in assay [1] of 250 to 500 nM.

In the case of `Nc1nc(C(=O)Nc2cc(-c3cnn(CCN4CCNCC4)c3)ccc2Cl)co1` [Example 81, 2-Amino-N-(2-chloro-5-{1-[2-(piperazin-1-yl)ethyl]-1H-pyrazol-4-yl}phenyl)-1,3-oxazole-4-carboxamide], on WT full length PAICS, the IC50 is 25 to 100 nM. For the same molecule, the EC50 in assay [1] fell in the range of 250 to 500 nM.

`Nc1nc(C(=O)Nc2cc(-c3cnc(OC4CCNCC4)nc3)ccc2Cl)co1` [Example 82, 2-Amino-N-{2-chloro-5-[2-(piperidin-4-yloxy)pyrimidin-5-yl]phenyl}-1,3-oxazole-4-carboxamide] displayed an IC50 at WT full length PAICS of 10 to 25 nM. The molecule further came in with an EC50 in assay [1] of 250 to 500 nM.

Molecule `CN1CCN(Cc2ccc(-c3ccc(Cl)c(NC(=O)c4coc(N)n4)c3)cn2)CC1` [Example 83, 2-Amino-N-(2-chloro-5-{6-[(4-methylpiperazin-1-yl)methyl]pyridin-3-yl}phenyl)-1,3-oxazole-4-carboxamide] registered an IC50 against WT full length PAICS of 25 to 100 nM. Moreover, the EC50 in assay [1] was 250 to 500 nM.

Molecule `Nc1nc(C(=O)Nc2cc(-c3ccc(OC4CCNCC4)nc3)ccc2Cl)co1` [Example 84, 2-Amino-N-{2-chloro-5-[6-(piperidin-4-yloxy)pyridin-3-yl]phenyl}-1,3-oxazole-4-carboxamide] came in with an IC50 on WT full length PAICS of 10 to 25 nM. In assay [1], the concentration giving a half-maximal response (EC50) lay in the range of 250 to 500 nM.

For `Nc1nc(C(=O)Nc2cc(-c3cnc(OC4CCNCC4)s3)ccc2Cl)co1` [Example 87, 2-Amino-N-{2-chloro-5-[2-(piperidin-4-yloxy)-1,3-thiazol-5-yl]phenyl}-1,3-oxazole-4-carboxamide], the IC50 at WT full length PAICS is less than 10 nM. For the same molecule, the EC50 in assay [1] is less than 100 nM.

`Nc1nc(C(=O)Nc2cc(-c3nc(CN4CCNCC4)cs3)ccc2Cl)co1` [Example 89, 2-Amino-N-{2-chloro-5-[4-(piperazin-1-ylmethyl)-1,3-thiazol-2-yl]phenyl}-1,3-oxazole-4-carboxamide]: at WT full length PAICS, the IC50 is less than 10 nM. In assay [1], the EC50 was less than 100 nM.

On WT full length PAICS, `Nc1nc(C(=O)Nc2cc(-c3cnc(CN4CCNCC4)s3)ccc2Cl)co1` [Example 90, 2-Amino-N-{2-chloro-5-[2-(piperazin-1-ylmethyl)-1,3-thiazol-5-yl]phenyl}-1,3-oxazole-4-carboxamide] gave a half-maximal inhibitory concentration (IC50) of 10 to 25 nM. The same molecule displayed a concentration for a half-maximal effect (EC50) in assay [1] of 100 to 250 nM.
